Source: the kinase profiling compilation of Christmann-Franck et al. (2016)

Columns and labels:
Assay in all cases: radiometric filter-binding kinase assay, Kinase HotSpot
Details in all cases: compound 0.5 µM; ATP 10 µM
PIM3 (human) = PIM3 (human) (UniProt Q86V86)
HIPK1 (human) = HIPK1 (human) (UniProt Q86Z02)
PDPK1 (human) = PDPK1 (human) (UniProt O15530)
OXSR1 (human) = OXSR1 (human) (UniProt O95747)
ZAP70 (human) = ZAP70 (human) (UniProt P43403)
TAOK3 (human) = TAOK3 (human) (UniProt Q9H2K8)
EPHA4 (human) = EPHA4 (human) (UniProt P54764)
ACVR1 (human) = ACVR1 (human) (UniProt Q04771)
DSTYK (human) = DSTYK (human) (UniProt Q6XUX3)
MAPK1 (human) = MAPK1 (human) (UniProt P28482)
CHEK1 (human) = CHEK1 (human) (UniProt O14757)
FGFR2 (human) = FGFR2 (human) (UniProt P21802)
ROCK2 (human) = ROCK2 (human) (UniProt O75116)
NEK4 (human) = NEK4 (human) (UniProt P51957)
CAMKK1 (human) = CAMKK1 (human) (UniProt Q8N5S9)
WEE1 (human) = WEE1 (human) (UniProt P30291)
NEK7 (human) = NEK7 (human) (UniProt Q8TDX7)
MST1R (human) = MST1R (human) (UniProt Q04912)
PTK6 (human) = PTK6 (human) (UniProt Q13882)
HIPK4 (human) = HIPK4 (human) (UniProt Q8NE63)
EPHA7 (human) = EPHA7 (human) (UniProt Q15375)
TEK (human) = TEK (human) (UniProt Q02763)
PRKD3 (human) = PRKD3 (human) (UniProt O94806)
KDR (human) = KDR (human) (UniProt P35968)
MAPKAPK2 (human) = MAPKAPK2 (human) (UniProt P49137)
ULK1 (human) = ULK1 (human) (UniProt O75385)
FGFR4 (human) = FGFR4 (human) (UniProt P22455)
CLK4 (human) = CLK4 (human) (UniProt Q9HAZ1)
PAK1 (human) = PAK1 (human) (UniProt Q13153)
MAP4K2 (human) = MAP4K2 (human) (UniProt Q12851)
IKBKB (human) = IKBKB (human) (UniProt O14920)
MAP3K5 (human) = MAP3K5 (human) (UniProt Q99683)
JAK3 JH1 JH2 (human) = JAK3 JH1 JH2 (human) (UniProt P52333)
STK3 (human) = STK3 (human) (UniProt Q13188)
CSNK2A1 (human) = CSNK2A1 (human) (UniProt P68400)
TAOK2 (human) = TAOK2 (human) (UniProt Q9UL54)
ROS1 (human) = ROS1 (human) (UniProt P08922)
BTK (human) = BTK (human) (UniProt Q06187)
AKT1 (human) = AKT1 (human) (UniProt P31749)
CDK1 CCNB1 (human) = CDK1 CCNB1 (human) (UniProt P06493+P14635)
STK24 (human) = STK24 (human) (UniProt Q9Y6E0)
RPS6KA5 KD2 (human) = RPS6KA5 KD2 (human) (UniProt O75582)

Sequence of PDPK1 (human) (O15530 whole entry, looked up): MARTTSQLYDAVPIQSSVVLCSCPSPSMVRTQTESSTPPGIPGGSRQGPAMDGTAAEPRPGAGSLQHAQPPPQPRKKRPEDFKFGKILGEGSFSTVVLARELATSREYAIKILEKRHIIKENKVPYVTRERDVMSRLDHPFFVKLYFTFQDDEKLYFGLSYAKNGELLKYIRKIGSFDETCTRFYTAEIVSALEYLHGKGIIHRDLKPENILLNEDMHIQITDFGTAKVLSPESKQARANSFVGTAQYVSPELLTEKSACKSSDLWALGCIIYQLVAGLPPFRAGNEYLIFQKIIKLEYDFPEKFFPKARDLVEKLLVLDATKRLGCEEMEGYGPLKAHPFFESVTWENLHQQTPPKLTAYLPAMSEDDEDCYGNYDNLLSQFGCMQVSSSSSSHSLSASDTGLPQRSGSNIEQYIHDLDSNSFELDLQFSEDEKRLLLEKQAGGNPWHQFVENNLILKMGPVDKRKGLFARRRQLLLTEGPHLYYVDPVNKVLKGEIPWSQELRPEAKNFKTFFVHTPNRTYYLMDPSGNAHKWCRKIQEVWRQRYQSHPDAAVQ
Sequence of ROCK2 (human) (O75116 whole entry, looked up): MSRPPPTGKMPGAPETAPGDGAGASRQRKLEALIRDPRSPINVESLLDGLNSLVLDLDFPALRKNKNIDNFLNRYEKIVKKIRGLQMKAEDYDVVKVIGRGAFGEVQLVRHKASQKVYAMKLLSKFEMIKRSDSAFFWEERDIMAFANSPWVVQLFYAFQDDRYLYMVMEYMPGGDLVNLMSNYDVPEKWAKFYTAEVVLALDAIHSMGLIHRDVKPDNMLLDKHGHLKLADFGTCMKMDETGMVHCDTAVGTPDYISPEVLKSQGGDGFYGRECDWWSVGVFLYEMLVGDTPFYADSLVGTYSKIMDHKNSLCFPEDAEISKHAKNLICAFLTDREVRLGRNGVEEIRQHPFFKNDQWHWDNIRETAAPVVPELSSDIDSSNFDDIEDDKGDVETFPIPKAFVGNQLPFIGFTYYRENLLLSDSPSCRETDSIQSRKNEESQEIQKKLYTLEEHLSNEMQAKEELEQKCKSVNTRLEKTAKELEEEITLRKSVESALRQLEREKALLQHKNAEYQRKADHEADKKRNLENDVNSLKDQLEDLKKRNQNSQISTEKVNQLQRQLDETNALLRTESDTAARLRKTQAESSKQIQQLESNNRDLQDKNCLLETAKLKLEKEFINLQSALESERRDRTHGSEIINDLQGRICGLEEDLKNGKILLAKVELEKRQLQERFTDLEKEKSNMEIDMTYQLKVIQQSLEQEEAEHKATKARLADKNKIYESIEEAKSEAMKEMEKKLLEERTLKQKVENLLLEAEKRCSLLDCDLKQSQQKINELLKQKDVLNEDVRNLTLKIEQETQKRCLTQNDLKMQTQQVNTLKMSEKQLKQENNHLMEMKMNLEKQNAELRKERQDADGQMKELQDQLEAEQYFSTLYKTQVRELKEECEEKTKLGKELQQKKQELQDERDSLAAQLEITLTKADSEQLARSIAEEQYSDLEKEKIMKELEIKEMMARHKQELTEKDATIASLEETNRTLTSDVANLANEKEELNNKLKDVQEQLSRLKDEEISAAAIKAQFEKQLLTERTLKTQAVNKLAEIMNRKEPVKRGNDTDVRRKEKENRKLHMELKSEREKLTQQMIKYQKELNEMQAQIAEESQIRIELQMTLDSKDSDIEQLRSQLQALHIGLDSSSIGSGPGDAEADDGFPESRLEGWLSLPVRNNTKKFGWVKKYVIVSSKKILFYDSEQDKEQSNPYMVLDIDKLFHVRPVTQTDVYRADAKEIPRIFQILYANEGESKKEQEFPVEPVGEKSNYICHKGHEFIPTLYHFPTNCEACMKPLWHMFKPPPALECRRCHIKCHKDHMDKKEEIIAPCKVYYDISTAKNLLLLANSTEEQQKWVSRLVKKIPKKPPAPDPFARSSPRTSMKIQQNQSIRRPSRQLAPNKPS
Sequence of PTK6 (human) (Q13882 whole entry, looked up): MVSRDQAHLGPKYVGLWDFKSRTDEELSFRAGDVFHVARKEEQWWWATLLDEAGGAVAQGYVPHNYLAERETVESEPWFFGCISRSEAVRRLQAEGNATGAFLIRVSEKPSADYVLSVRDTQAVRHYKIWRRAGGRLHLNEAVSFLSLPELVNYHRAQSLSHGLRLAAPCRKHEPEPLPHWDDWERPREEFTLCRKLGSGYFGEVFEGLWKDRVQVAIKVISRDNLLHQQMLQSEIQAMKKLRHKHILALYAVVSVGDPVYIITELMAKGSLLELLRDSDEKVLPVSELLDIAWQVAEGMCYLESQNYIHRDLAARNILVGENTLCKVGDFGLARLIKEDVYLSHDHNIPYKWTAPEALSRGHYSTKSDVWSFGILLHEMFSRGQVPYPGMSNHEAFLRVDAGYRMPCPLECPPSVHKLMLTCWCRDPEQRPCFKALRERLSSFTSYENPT
Sequence of CLK4 (human) (Q9HAZ1 whole entry, looked up): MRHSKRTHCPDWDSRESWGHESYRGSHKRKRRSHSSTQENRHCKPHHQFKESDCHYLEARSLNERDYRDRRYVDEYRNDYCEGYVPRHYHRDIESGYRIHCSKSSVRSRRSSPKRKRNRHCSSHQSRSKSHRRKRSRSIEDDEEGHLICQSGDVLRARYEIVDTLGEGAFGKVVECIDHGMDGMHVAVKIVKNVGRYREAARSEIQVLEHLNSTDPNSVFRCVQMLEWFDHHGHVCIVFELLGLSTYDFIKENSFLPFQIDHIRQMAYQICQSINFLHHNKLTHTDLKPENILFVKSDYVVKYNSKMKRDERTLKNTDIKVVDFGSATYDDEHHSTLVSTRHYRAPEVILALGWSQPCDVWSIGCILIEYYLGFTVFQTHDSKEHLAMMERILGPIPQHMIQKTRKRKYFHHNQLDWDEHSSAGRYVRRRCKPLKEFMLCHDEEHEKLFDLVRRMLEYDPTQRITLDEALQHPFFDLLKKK
Sequence of TEK (human) (Q02763 whole entry, looked up): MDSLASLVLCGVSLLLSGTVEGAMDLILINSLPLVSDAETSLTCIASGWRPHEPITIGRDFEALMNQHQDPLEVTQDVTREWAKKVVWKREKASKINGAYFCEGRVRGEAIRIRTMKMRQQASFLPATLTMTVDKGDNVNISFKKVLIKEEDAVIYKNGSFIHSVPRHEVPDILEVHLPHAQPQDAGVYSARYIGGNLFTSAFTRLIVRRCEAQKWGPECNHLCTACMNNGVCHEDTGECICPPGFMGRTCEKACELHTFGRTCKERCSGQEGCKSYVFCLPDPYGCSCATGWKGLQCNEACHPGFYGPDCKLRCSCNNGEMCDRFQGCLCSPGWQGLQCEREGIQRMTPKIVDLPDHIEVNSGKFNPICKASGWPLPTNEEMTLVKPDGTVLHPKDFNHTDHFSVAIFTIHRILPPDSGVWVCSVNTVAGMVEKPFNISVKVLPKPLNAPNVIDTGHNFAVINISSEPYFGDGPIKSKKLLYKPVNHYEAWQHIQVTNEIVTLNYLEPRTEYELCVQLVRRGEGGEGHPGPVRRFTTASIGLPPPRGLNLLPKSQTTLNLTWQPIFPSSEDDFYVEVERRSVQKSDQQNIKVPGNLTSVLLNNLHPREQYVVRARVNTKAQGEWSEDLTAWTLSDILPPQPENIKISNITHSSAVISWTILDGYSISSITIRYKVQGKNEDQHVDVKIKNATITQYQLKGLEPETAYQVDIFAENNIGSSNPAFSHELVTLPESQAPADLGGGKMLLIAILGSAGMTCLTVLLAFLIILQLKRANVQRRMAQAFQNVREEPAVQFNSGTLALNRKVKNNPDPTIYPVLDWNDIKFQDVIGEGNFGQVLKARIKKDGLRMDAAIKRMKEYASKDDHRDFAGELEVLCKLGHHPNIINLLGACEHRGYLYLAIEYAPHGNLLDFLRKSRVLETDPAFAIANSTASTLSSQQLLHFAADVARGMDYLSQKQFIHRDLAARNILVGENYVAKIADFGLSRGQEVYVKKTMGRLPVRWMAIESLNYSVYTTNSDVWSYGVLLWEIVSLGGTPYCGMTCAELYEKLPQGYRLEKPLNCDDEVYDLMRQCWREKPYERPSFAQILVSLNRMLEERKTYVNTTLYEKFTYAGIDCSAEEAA
Sequence of OXSR1 (human) (O95747 whole entry, looked up): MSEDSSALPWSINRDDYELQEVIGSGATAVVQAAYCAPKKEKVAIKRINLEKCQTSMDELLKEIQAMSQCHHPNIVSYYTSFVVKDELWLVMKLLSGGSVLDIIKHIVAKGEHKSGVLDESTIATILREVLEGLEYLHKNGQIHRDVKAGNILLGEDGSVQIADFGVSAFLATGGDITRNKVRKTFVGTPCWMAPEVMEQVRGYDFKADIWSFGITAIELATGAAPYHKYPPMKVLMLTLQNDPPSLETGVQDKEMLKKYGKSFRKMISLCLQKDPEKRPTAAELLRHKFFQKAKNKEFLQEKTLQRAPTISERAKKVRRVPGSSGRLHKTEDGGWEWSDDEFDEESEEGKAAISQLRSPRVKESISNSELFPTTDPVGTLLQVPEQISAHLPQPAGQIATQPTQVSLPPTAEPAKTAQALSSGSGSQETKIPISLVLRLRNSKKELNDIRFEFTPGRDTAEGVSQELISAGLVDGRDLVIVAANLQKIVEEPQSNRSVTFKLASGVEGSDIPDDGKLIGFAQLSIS
Sequence of PAK1 (human) (Q13153 whole entry, looked up): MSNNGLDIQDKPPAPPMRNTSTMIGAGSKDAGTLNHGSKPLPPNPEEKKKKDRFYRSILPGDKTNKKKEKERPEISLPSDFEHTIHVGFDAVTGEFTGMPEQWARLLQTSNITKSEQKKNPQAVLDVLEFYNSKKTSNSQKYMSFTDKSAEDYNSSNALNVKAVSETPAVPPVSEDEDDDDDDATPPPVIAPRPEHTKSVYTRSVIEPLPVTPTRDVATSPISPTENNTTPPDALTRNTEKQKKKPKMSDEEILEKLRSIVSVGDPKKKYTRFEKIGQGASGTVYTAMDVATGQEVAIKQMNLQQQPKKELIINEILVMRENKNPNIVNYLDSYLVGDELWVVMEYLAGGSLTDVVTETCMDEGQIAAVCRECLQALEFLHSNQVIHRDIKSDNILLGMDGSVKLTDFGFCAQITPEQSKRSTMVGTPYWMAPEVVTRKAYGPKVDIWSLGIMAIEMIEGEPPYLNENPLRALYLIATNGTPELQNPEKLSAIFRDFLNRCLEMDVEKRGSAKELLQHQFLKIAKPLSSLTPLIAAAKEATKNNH

## Cc1ccc(NC(=O)c2ccc(CN3CCN(C)CC3)cc2)cc1Nc1nc(-c2cccnc2)cs1
PIM3 (human)
  residual activity: 73.7%
HIPK1 (human)
  residual activity: 97.4%
PDPK1 (human)
  residual activity: 101%
OXSR1 (human)
  residual activity: 95.6%
ZAP70 (human)
  residual activity: 112%
TAOK3 (human)
  residual activity: 95.4%
EPHA4 (human)
  residual activity: 105%
ACVR1 (human)
  residual activity: 101%
DSTYK (human)
  residual activity: 92.4%
MAPK1 (human)
  residual activity: 91.6%
CHEK1 (human)
  residual activity: 110%
FGFR2 (human)
  residual activity: 100%
ROCK2 (human)
  residual activity: 95.1%
NEK4 (human)
  residual activity: 92.4%
CAMKK1 (human)
  residual activity: 97.6%
WEE1 (human)
  residual activity: 97%
NEK7 (human)
  residual activity: 96.3%
MST1R (human)
  residual activity: 104%
PTK6 (human)
  residual activity: 79.2%
HIPK4 (human)
  residual activity: 101%
EPHA7 (human)
  residual activity: 99.7%
TEK (human)
  residual activity: 97.2%
PRKD3 (human)
  residual activity: 92.7%
KDR (human)
  residual activity: 106%
MAPKAPK2 (human)
  residual activity: 102%
ULK1 (human)
  residual activity: 97.7%
FGFR4 (human)
  residual activity: 89.8%
CLK4 (human)
  residual activity: 93.3%
PAK1 (human)
  residual activity: 104%
MAP4K2 (human)
  residual activity: 103%
IKBKB (human)
  residual activity: 97.8%
MAP3K5 (human)
  residual activity: 95%
JAK3 JH1 JH2 (human)
  residual activity: 93.7%
STK3 (human)
  residual activity: 94.4%
CSNK2A1 (human)
  residual activity: 99.2%
TAOK2 (human)
  residual activity: 91.6%
ROS1 (human)
  residual activity: 91.5%
BTK (human)
  residual activity: 99.6%
AKT1 (human)
  residual activity: 93.2%
CDK1 CCNB1 (human)
  residual activity: 97.6%
STK24 (human)
  residual activity: 104%
RPS6KA5 KD2 (human)
  residual activity: 103%

## COc1cc2nccc(Oc3ccc(NC(=S)NC(=O)c4ccccc4C)cc3)c2cc1OC
PIM3 (human)
  residual activity: 98.2%
HIPK1 (human)
  residual activity: 100%
PDPK1 (human)
  residual activity: 105%
OXSR1 (human)
  residual activity: 106%
ZAP70 (human)
  residual activity: 97%
TAOK3 (human)
  residual activity: 87.9%
EPHA4 (human)
  residual activity: 81.4%
ACVR1 (human)
  residual activity: 93.5%
DSTYK (human)
  residual activity: 112%
MAPK1 (human)
  residual activity: 89.3%
CHEK1 (human)
  residual activity: 95.1%
FGFR2 (human)
  residual activity: 89%
ROCK2 (human)
  residual activity: 92.5%
NEK4 (human)
  residual activity: 97.6%
CAMKK1 (human)
  residual activity: 91.2%
WEE1 (human)
  residual activity: 89.6%
NEK7 (human)
  residual activity: 106%
MST1R (human)
  residual activity: 88.8%
PTK6 (human)
  residual activity: 33.9%
HIPK4 (human)
  residual activity: 86%
EPHA7 (human)
  residual activity: 90.4%
TEK (human)
  residual activity: 90.1%
PRKD3 (human)
  residual activity: 97.8%
KDR (human)
  residual activity: 74.1%
MAPKAPK2 (human)
  residual activity: 98%
ULK1 (human)
  residual activity: 95%
FGFR4 (human)
  residual activity: 92.9%
CLK4 (human)
  residual activity: 87.8%
PAK1 (human)
  residual activity: 101%
MAP4K2 (human)
  residual activity: 92.9%
IKBKB (human)
  residual activity: 99.4%
MAP3K5 (human)
  residual activity: 106%
JAK3 JH1 JH2 (human)
  residual activity: 96.6%
STK3 (human)
  residual activity: 86%
CSNK2A1 (human)
  residual activity: 98.9%
TAOK2 (human)
  residual activity: 91.9%
ROS1 (human)
  residual activity: 26.7%
BTK (human)
  residual activity: 28.4%
AKT1 (human)
  residual activity: 95.7%
CDK1 CCNB1 (human)
  residual activity: 90.7%
STK24 (human)
  residual activity: 101%
RPS6KA5 KD2 (human)
  residual activity: 95.3%

## CC(C)n1cnc2c(Nc3cccc(Cl)c3)nc(NCCO)nc21
PIM3 (human)
  residual activity: 90.4%
HIPK1 (human)
  residual activity: 99.8%
PDPK1 (human)
  residual activity: 96.8%
OXSR1 (human)
  residual activity: 97.7%
ZAP70 (human)
  residual activity: 98.3%
TAOK3 (human)
  residual activity: 91.8%
EPHA4 (human)
  residual activity: 87.5%
ACVR1 (human)
  residual activity: 80.3%
DSTYK (human)
  residual activity: 97%
MAPK1 (human)
  residual activity: 107%
CHEK1 (human)
  residual activity: 87.1%
FGFR2 (human)
  residual activity: 94.5%
ROCK2 (human)
  residual activity: 97.5%
NEK4 (human)
  residual activity: 89.1%
CAMKK1 (human)
  residual activity: 88.2%
WEE1 (human)
  residual activity: 98.9%
NEK7 (human)
  residual activity: 93.9%
MST1R (human)
  residual activity: 101%
PTK6 (human)
  residual activity: 90.2%
HIPK4 (human)
  residual activity: 94.6%
EPHA7 (human)
  residual activity: 87.1%
TEK (human)
  residual activity: 97.4%
PRKD3 (human)
  residual activity: 88.4%
KDR (human)
  residual activity: 103%
MAPKAPK2 (human)
  residual activity: 98.9%
ULK1 (human)
  residual activity: 77.6%
FGFR4 (human)
  residual activity: 86.5%
CLK4 (human)
  residual activity: 36.1%
PAK1 (human)
  residual activity: 97.1%
MAP4K2 (human)
  residual activity: 87.6%
IKBKB (human)
  residual activity: 102%
MAP3K5 (human)
  residual activity: 114%
JAK3 JH1 JH2 (human)
  residual activity: 24.7%
STK3 (human)
  residual activity: 94.6%
CSNK2A1 (human)
  residual activity: 83.8%
TAOK2 (human)
  residual activity: 97.2%
ROS1 (human)
  residual activity: 102%
BTK (human)
  residual activity: 86.3%
AKT1 (human)
  residual activity: 103%
CDK1 CCNB1 (human)
  residual activity: 46.6%
STK24 (human)
  residual activity: 87.7%
RPS6KA5 KD2 (human)
  residual activity: 87%

## Nc1n[nH]c2nnc(-c3c(-c4ccccc4)nn4ccccc34)cc12
PIM3 (human)
  residual activity: 100%
HIPK1 (human)
  residual activity: 99.7%
PDPK1 (human)
  residual activity: 104%
OXSR1 (human)
  residual activity: 102%
ZAP70 (human)
  residual activity: 90.1%
TAOK3 (human)
  residual activity: 101%
EPHA4 (human)
  residual activity: 85.9%
ACVR1 (human)
  residual activity: 107%
DSTYK (human)
  residual activity: 95.9%
MAPK1 (human)
  residual activity: 87.2%
CHEK1 (human)
  residual activity: 103%
FGFR2 (human)
  residual activity: 102%
ROCK2 (human)
  residual activity: 89.6%
NEK4 (human)
  residual activity: 88.4%
CAMKK1 (human)
  residual activity: 125%
WEE1 (human)
  residual activity: 92.4%
NEK7 (human)
  residual activity: 95.3%
MST1R (human)
  residual activity: 102%
PTK6 (human)
  residual activity: 90.8%
HIPK4 (human)
  residual activity: 105%
EPHA7 (human)
  residual activity: 99.5%
TEK (human)
  residual activity: 96.6%
PRKD3 (human)
  residual activity: 58.9%
KDR (human)
  residual activity: 101%
MAPKAPK2 (human)
  residual activity: 105%
ULK1 (human)
  residual activity: 97.1%
FGFR4 (human)
  residual activity: 104%
CLK4 (human)
  residual activity: 101%
PAK1 (human)
  residual activity: 91.9%
MAP4K2 (human)
  residual activity: 98.6%
IKBKB (human)
  residual activity: 115%
MAP3K5 (human)
  residual activity: 99.3%
JAK3 JH1 JH2 (human)
  residual activity: 105%
STK3 (human)
  residual activity: 102%
CSNK2A1 (human)
  residual activity: 94.8%
TAOK2 (human)
  residual activity: 101%
ROS1 (human)
  residual activity: 80.2%
BTK (human)
  residual activity: 93.6%
AKT1 (human)
  residual activity: 98%
CDK1 CCNB1 (human)
  residual activity: 90.2%
STK24 (human)
  residual activity: 74.6%
RPS6KA5 KD2 (human)
  residual activity: 101%
